Assay results published in PMC9516332 (Frontiers in Oncology, 2022).

What was measured:
Experiment in all cases: Kinase panel profiling at 1 µmol/L (MSA or IMAP), percentage inhibition
Type in all cases: biochemical
[1] = molecular target: panel of 255 wild-type kinases (Homo sapiens, UniProt P78362); conditions: kinase SRPK2; 1 µmol/L single concentration; read-out: %-inhibition at 1 µmol/L, SRPK2
[2] = molecular target: T1, panel of 255 wild-type kinases (Homo sapiens, UniProt Q05513); conditions: kinase PKCζ; 1 µmol/L single concentration; read-out: %-inhibition at 1 µmol/L, PKCζ
T1 sequence (Q05513 1-592): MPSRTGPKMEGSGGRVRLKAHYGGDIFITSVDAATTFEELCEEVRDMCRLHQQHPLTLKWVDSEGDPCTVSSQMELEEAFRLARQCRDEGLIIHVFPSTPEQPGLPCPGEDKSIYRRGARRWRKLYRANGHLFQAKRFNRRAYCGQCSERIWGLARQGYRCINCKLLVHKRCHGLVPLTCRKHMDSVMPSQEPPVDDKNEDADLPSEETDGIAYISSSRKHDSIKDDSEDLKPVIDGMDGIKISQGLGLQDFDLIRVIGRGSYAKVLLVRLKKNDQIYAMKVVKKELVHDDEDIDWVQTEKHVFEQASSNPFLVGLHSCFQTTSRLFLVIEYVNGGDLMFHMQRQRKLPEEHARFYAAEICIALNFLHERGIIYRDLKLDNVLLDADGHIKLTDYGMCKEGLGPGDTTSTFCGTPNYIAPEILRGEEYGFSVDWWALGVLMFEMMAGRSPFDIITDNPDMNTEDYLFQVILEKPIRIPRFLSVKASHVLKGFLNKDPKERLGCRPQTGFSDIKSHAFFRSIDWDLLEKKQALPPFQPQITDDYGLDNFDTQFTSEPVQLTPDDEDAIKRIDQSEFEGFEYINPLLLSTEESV

[3] = molecular target: panel of 255 wild-type kinases (Homo sapiens, UniProt P05129); conditions: kinase PKCγ; 1 µmol/L single concentration; read-out: %-inhibition at 1 µmol/L, PKCγ
[4] = molecular target: panel of 255 wild-type kinases (Homo sapiens, UniProt Q9H0K1); conditions: kinase QIK; 1 µmol/L single concentration; read-out: %-inhibition at 1 µmol/L, QIK
[5] = molecular target: T2, panel of 255 wild-type kinases (Homo sapiens, UniProt P51955); conditions: NEK2; 1 µmol/L single concentration; read-out: %-inhibition, NEK2
T2 sequence (P51955 1-445): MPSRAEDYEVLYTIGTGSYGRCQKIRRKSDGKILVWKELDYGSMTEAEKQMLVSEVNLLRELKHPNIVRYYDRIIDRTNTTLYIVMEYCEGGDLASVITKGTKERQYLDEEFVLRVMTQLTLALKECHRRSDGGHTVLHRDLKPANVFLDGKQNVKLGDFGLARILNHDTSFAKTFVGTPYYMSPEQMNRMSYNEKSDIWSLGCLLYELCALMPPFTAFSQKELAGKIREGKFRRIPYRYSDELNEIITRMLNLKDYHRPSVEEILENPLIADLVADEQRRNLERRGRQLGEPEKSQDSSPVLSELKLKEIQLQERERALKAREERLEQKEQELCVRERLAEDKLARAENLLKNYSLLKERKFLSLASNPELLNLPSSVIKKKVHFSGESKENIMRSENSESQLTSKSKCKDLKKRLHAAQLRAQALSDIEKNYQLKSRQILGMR

[6] = molecular target: panel of 255 wild-type kinases (Homo sapiens, UniProt Q9HCP0); conditions: kinase CK1γ1; 1 µmol/L single concentration; read-out: %-inhibition at 1 µmol/L, CK1γ1
[7] = molecular target: T3, panel of 255 wild-type kinases (Homo sapiens, UniProt Q9H093); conditions: NuaK2; 1 µmol/L single concentration; read-out: %-inhibition, NuaK2
T3 sequence (Q9H093 1-628): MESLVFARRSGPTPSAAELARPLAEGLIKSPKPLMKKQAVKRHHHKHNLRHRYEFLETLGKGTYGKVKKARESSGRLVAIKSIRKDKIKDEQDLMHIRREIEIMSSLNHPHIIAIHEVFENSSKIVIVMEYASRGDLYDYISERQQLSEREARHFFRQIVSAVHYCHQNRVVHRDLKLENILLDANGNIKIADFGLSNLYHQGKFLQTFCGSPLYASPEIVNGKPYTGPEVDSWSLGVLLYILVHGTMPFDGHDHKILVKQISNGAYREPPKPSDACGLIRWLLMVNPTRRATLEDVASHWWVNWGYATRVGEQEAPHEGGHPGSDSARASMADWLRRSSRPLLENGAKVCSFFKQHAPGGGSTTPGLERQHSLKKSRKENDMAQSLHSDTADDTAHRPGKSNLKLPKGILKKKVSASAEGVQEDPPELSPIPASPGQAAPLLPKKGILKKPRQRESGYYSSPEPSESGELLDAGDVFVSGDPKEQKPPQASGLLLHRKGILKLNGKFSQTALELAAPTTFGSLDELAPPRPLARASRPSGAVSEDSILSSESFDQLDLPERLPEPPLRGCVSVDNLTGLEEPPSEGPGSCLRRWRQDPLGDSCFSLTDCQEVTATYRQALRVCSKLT

[8] = molecular target: panel of 255 wild-type kinases (Homo sapiens, UniProt P19525); conditions: kinase PKR; 1 µmol/L single concentration; read-out: %-inhibition at 1 µmol/L, PKR

Compound	inhibition at 1 µM [1]	inhibition at 1 µM [2]	inhibition at 1 µM [3]	inhibition at 1 µM [4]	inhibition at 1 µM [5]	inhibition at 1 µM [6]	inhibition at 1 µM [7]	inhibition at 1 µM [8]
C=CC(=O)N1CCC([C@@H]2CCNc3c(C(N)=O)c(-c4ccc(Oc5ccccc5)cc4)nn32)CC1 [zanubrutinib]	-2.35%	0.367%	-2.24%	-4%	-0.59%	-3.73%	0.524%	-1.41%
Cn1cc(-c2cc3c(N4CCN(c5ncc([C@@](C)(N)c6ccc(F)cc6)cn5)CC4)ncnn3c2)cn1 [avapritinib]	-0.951%	-0.226%	-2.11%	44%	9%	28%	68%	9%
